This note sets out measurements from patent publication US20230069886A1, “AROMATIC SULPHONAMIDES DERIVATIVES THAT INHIBITS PDI A3, THEIR SYNTHESIS AND USE” (Uniwersytet Jagiellonski, priority 2020, published 2023).

Structures are written as SMILES. Values after ≈ are worked out from the molar mass of the structure shown.

In one data set the target is T1, PDI A3 (Homo sapiens, UniProt P30101).
T1 construct: purchased Mybiosource; host or cells: E. coli
T1 sequence (P30101 25-505): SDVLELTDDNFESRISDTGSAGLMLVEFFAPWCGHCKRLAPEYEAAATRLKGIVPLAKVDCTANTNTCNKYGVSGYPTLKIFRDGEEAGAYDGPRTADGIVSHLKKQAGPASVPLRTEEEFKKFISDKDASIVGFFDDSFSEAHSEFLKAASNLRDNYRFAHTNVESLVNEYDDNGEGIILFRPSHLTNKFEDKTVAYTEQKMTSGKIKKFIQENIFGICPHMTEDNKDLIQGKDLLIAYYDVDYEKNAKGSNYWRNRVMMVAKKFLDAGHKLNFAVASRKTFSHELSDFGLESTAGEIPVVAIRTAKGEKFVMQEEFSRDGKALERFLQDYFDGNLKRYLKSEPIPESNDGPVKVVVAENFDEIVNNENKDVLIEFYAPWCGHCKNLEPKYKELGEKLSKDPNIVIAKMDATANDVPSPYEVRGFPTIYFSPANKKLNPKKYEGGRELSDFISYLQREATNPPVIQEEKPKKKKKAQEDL
The data set is described as follows: PDI A3 inhibition, insulin turbidimetric assay. To be noted: 10 ug/ml PDI A3, incubated 60 min at 37° C., turbidity at 650 nm; read-out: Inhibition of PDI A3 (EC 50). It is filed as biochemical. In outline:
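Recombinant E. coli-expressed PDIA3 (10 ug/ml) was preincubated with compound for 60 min at 37° C in 0.1 mM phosphate buffer pH 7.6, 1 mM EDTA, 0.087 mM DTT. Reaction was started with insulin (0.15 mM final) and DTT (0.174 mM final). Insulin reduction was followed as turbidity at 650 nm over 120-s recordings, against reference samples without PDI.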

A further data set relates to MCF-7. The data set is described as follows: MTT antiproliferative assay, 48 h, MCF-7. It is filed as cell-based, human. To be noted: 48-hour exposition, read-out: Cytotoxicity, IC50, μM MCF-7.
A further data set relates to HT-29. The data set can be described thus: MTT antiproliferative assay, 72 h, HT-29. It is filed as cell-based, human. To be noted: 72 hours exposition. As for the experimental part:
Anticancer activity of selected compounds of invention, PDI A3-inhibitors has been also tested in vitro in antiproliferative assay in normoxic and hypoxic conditions as well in estrogen-stimulated cancer cells. In the experiment, cells were seeded on 96-well plates (Sarstedt, Germany) in appropriate culture medium at a density of 10^5 cells/mL 24 h before adding the tested compounds. Cells were treated with each compound in four concentrations in the range 0.1-100 μg/mL. […] After 72 h of compound treatment at 37° C., 5% CO2 humid atmosphere and in wo different oxygen level conditions: 21%—normal and <1%—hypoxia. In some experiments the MDA-MB-231 and MCF-7 cells were seeded with or without 200 nM estradiol and after 24 h the tested compounds were added. […] Briefly, cells were fixed with 50 μL/well of 50% (w/v) trichloroacetic acid (Avantor Performance Materials, Gliwice, Poland). After 1 h incubation, plates were washed several times with tap water and 50 μL of 0.4% (w/v) solution of sulforhodamine B (Sigma-Aldrich, Germany) in 1% (v/v) acetic acid (Avantor Performance Materials, Gliwice, Poland) was added to each well. After 30 min incubation at room temperature, unbound dye was washed out with 1% (v/v) acetic acid, whereas bound dye was solubilized with 10 mM unbuffered TRIS (Avantor Performance Materials, Gliwice, Poland) solution. The entire procedure was performed using a BioTek EL-406 washing station (BioTek Instruments, USA). After additional 30 min, absorbance was read using a Biotek Hybrid H4 reader (BioTek Instruments, USA) at 540 nm wavelength. […] Absorbance was measured using a Biotek Hybrid H4 reader at 570 nm wavelength for MTT assay.
Compounds at each concentration were tested in triplicate in a single experiment and each experiment was repeated at least three times independently. Results are presented as mean IC50±SD.
For orientation: Tetrazolium dyes change colour on reduction, which living cells bring about.

By IC50 is commonly meant the concentration that gives 50% inhibition. Turning to `COC(=O)C1CN1S(=O)(=O)c1ccc2c(C=O)c(N(C)C)ccc2c1` (stereo not drawn) [Compound C-3390, Methyl 1-[[6-(dimethylamino)-5-formyl-2-naphthyl]sulfonyl]aziridine-2-calboxylate], the EC50 at PDI A3 came to 4 µM. In the data set on MCF-7, the IC50 stood at 20 ± 0.3 µM. For the same compound, the “IC50 [μg/ml] HT-29 normal” value in the data set with HT-29 is 33.6 ± 2.9 µg/mL (≈ 92.7 µM).
